Counter-ions that a name gives are not always drawn.
How the values were obtained:
[1] = system: chronic opioid user; details: intravenously; subjects receiving opioids chronically; cited from earlier work
[2] = opioid agonist / antagonist character of the MNTX stereoisomers (stated, no method given); details: statement in words, no assay described

Row | Compound | dose required to induce immediate laxation [1] | opioid activity (agonist or antagonist) [2]
1 | C[N+]1(CC2CC2)CC[C@]23c4c5ccc(O)c4O[C@H]2C(=O)CC[C@@]3(O)[C@H]1C5 (stereo partly drawn) [MNTX, Methylnaltrexone] | about 0.15 mg/kg | –
2 | C[N+]1(CC2CC2)CC[C@]23c4c5ccc(O)c4O[C@H]2C(=O)CC[C@@]3(O)[C@H]1C5 (stereo partly drawn) [R-MNTX, morphinanium, 17R, 17-(cyclopropylmethyl)-4,5-epoxy-3,14-dihydroxy-17-methyl-6-oxo-, salt, (5α)-(9Cl)] | – | opioid antagonist
3 | C[N@@+]1(CC2CC2)CC[C@]23c4c5ccc(O)c4OC2C(=O)CCC3(O)C1C5 (stereo partly drawn) [S-MNTX] | – | opioid agonist

— patent US9597327B2, “Synthesis of (R)-N-methylnaltrexone” (Progenics Pharmaceuticals, Inc., priority 2005, dated 2017)
